Values after ≈ are worked out from the molar mass of the structure shown.
Legend:
[1] = test system: Enterococcus sp.; assay: in vitro antibacterial evaluation, MIC by broth dilution; assay type: cell-based; settings: broth dilution, 18 hours at 35° C.
In short: (§1)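 Step 1: dilute antibiotic across 64-0.06 μg/mL in Muller-Hinton II […]. Step 2: inoculate at 5×10^5 CFU/mL.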

[2] = test system: Staphylococcus sp.; assay: as above; assay type: cell-based; settings: broth dilution, 18 hours at 35° C.
In short: as §1

[3] = test system: Streptococcus sp.; assay: as above; assay type: cell-based; settings: broth dilution, 18 hours at 35° C.
In short: as §1

[4] = test system: Staphylococcus aureus-SMITH (GC 4543); assay: acute lethal infection in mice; assay type: in vivo; settings: acute lethal infection, female CD-1 mice, intraperitoneal challenge, intravenous 30 min. after infection, 7 day survival
In short: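 Protocol: bacteria suspended in trypticase soy broth or hog gastric mucin injected ip into female CD-1 mice at a level killing untreated controls in 24-48 hr; compound given iv in saline or 5% dextrose 30 min post-challenge; five mice per dose; ED50 derived from pooled 7 day survival of three runs.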

[5] = anatomic pathology (histopathology of heart and kidney) in mice; assay type: in vivo; settings: CD-1 mice, 20 mg/kg intravenously daily for 9 days, necropsy day 10, microscopic histopathology
Experimental: Samples of tissues from necropsied mice were formalin-fixed, paraffin-embedded, sectioned, stained with hematoxylin and eosin, and examined microscopically. Histopathologic findings were recorded. These findings were subjectively graded on a scale corresponding to slight, mild, moderate, marked and severe as compared to untreated controls.

[6] = test system: Escherichia coli; assay: in vitro antibacterial evaluation, MIC by broth dilution; assay type: cell-based; settings: 18 hours at 35° C.
In short: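 MIC is the lowest antibiotic concentration (tested 64-0.06 μg/mL) preventing growth of a 5×10^5 CFU/mL inoculum. Determined by broth dilution in Mueller-Hinton II medium following NCCLS standard M7-A2.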

Which “MIC Enterococcus avium (GC 4558)” value ([1]; Enterococcus avium (GC 4558)) does the source give for `CC(c1ccccc1)C1NC(=O)CNC(=O)C(CO)NC(=O)C(C(O)C2CN(Cc3ccc4ccccc4c3)C(=N)N2C2OC(CO)C(O)C(O)C2O)NC(=O)C(C(O)C2CNC(=N)N2)NC(=O)C(Cc2ccc(OC3OC(CO)C(OC4OC5COC6(OC5C(O)C4O)C4CC5CC(C4)CC6C5)C(O)C3O)cc2)NC1=O` (stereo not drawn) [Example 78, Cyclo[glycyl-β-methylphenylalanyl-O-[4-O-[4,6-O-(2-adamantylidene)hexopyranosyl]hexopyranosyl]tyrosyl-3-(2-iminoimidazolidin-4-yl)seryl-3-[3-hexopyranosyl-2-imino-1-(2-naphthylmethyl)-imidazolidin-4-yl]serylseryl]] here?
Its value is 4 µg/mL (≈ 2.55 µM).

And the “MIC Enterococcus faecalis (ATCC 29212)” value ([1]; Enterococcus faecalis (ATCC 29212))?
The value was 8 µg/mL (≈ 5.1 µM).

What about the “MIC Enterococcus faecalis (GC 4552)” value ([1]; Enterococcus faecalis (GC 4552)) of the same molecule?
Its value is 8 µg/mL (≈ 5.1 µM).

And the “MIC Enterococcus faecalis (GC 4553)” value ([1]; Enterococcus faecalis (GC 4553))?
Its value is 8 µg/mL (≈ 5.1 µM).

What about the “MIC Enterococcus faecalis (GC 4554)” value ([1]; Enterococcus faecalis (GC 4554)) of the same molecule?
The value was 16 µg/mL (≈ 10.2 µM).

What about the “MIC Enterococcus faecalis (GC 6189)” value ([1]; Enterococcus faecalis (GC 6189)) of the same molecule?
The value was 16 µg/mL (≈ 10.2 µM).

And the “MIC Enterococcus faecium (GC 2243)” value ([1]; Enterococcus faecium (GC 2243))?
Its value is 8 µg/mL (≈ 5.1 µM).

What about the “MIC Enterococcus faecium (GC 4556)” value ([1]; Enterococcus faecium (GC 4556)) of the same molecule?
The value was 16 µg/mL (≈ 10.2 µM).

And the “MIC Enterococcus faecium (GC 4557)” value ([1]; Enterococcus faecium (GC 4557))?
The value was 2 µg/mL (≈ 1.28 µM).

What about the “MIC Enterococcus avium (GC 4558)” value [1] of the same molecule?
Its value is 4 µg/mL (≈ 2.55 µM).

What about the “MIC Enterococcus faecalis (ATCC 29212)” value [1] of the same molecule?
The value was 8 µg/mL (≈ 5.1 µM).

And the “MIC Enterococcus faecalis (GC 2242)” value [1]?
Its value is 16 µg/mL (≈ 10.2 µM).

What about the “MIC Enterococcus faecalis (GC 2691)” value [1] of the same molecule?
Its value is 16 µg/mL (≈ 10.2 µM).

What about the “MIC Enterococcus faecalis (GC 3059)” value [1] of the same molecule?
The value was 16 µg/mL (≈ 10.2 µM).

What about the “MIC Enterococcus faecalis (GC 4552)” value [1] of the same molecule?
Its value is 8 µg/mL (≈ 5.1 µM).

What about the “MIC Enterococcus faecalis (GC 4553)” value [1] of the same molecule?
The value was 8 µg/mL (≈ 5.1 µM).

And the “MIC Enterococcus faecalis (GC 4554)” value [1]?
Its value is 16 µg/mL (≈ 10.2 µM).

What about the “MIC Enterococcus faecalis (GC 6189)” value [1] of the same molecule?
The value was 16 µg/mL (≈ 10.2 µM).

And the “MIC Enterococcus faecium (GC 2243)” value [1]?
The value was 8 µg/mL (≈ 5.1 µM).

What about the “MIC Enterococcus faecium (GC 4556)” value [1] of the same molecule?
Its value is 16 µg/mL (≈ 10.2 µM).

And the “MIC Enterococcus faecium (GC 4557)” value [1]?
The value was 2 µg/mL (≈ 1.28 µM).

What about the “MIC Enterococcus faecalis (GC 2242)” value ([1]; strain GC 2242) of the same molecule?
The value was 16 µg/mL (≈ 10.2 µM).

What about the “MIC Enterococcus faecalis (GC 2691)” value ([1]; strain GC 2691) of the same molecule?
The value was 16 µg/mL (≈ 10.2 µM).

And the “MIC Enterococcus faecalis (GC 3059)” value ([1]; strain GC 3059)?
The value was 16 µg/mL (≈ 10.2 µM).

And the “MIC Staphylococcus aureus (ATCC 29213)” value ([2]; strain ATCC 29213)?
Its value is 8 µg/mL (≈ 5.1 µM).

What about the “MIC Staphylococcus aureus (GC 1131)” value ([2]; strain GC 1131) of the same molecule?
Its value is 8 µg/mL (≈ 5.1 µM).

And the “MIC Staphylococcus aureus (GC 3051)” value ([2]; strain GC 3051)?
The value was 8 µg/mL (≈ 5.1 µM).

And the “MIC Staphylococcus aureus (GC 3053)” value ([2]; strain GC 3053)?
The value was 8 µg/mL (≈ 5.1 µM).

And the “MIC Staphylococcus aureus (GC 4541)” value ([2]; strain GC 4541)?
The value was 4 µg/mL (≈ 2.55 µM).

What about the “MIC Staphylococcus aureus (GC 4542)” value ([2]; strain GC 4542) of the same molecule?
Its value is 8 µg/mL (≈ 5.1 µM).

What about the “MIC Staphylococcus aureus-SMITH (GC 4543)” value ([2]; strain GC 4543) of the same molecule?
Its value is 4 µg/mL (≈ 2.55 µM).

What about the “MIC Staphylococcus aureus (GC 4544)” value ([2]; strain GC 4544) of the same molecule?
Its value is 8 µg/mL (≈ 5.1 µM).

And the “MIC Staphylococcus aureus (GC 4545)” value ([2]; strain GC 4545)?
The value was 8 µg/mL (≈ 5.1 µM).

And the “MIC Staphylococcus haemolyticus (GC 4546)” value ([2]; strain GC 4546)?
Its value is 4 µg/mL (≈ 2.55 µM).

And the “MIC Coagulase Negative Staphylococcus (GC 4547)” value ([2]; strain GC 4547)?
The value was 4 µg/mL (≈ 2.55 µM).

And the “MIC Coagulase Negative Staphylococcus (GC 4548)” value ([2]; strain GC 4548)?
Its value is 4 µg/mL (≈ 2.55 µM).

And the “MIC Coagulase Negative Staphylococcus (GC 4549)” value ([2]; strain GC 4549)?
Its value is 8 µg/mL (≈ 5.1 µM).

What about the “MIC Coagulase Negative Staphylococcus (GC 4551)” value ([2]; strain GC 4551) of the same molecule?
Its value is 8 µg/mL (≈ 5.1 µM).

And the “MIC Coagulase Negative Staphylococcus (GC 6257)” value ([2]; strain GC 6257)?
The value was 2 µg/mL (≈ 1.28 µM).

What about the “MIC Streptococcus agalactiae (GC 4564)” value [3] of the same molecule?
Its value is 1 µg/mL (≈ 0.638 µM).

What about the “MIC Streptococcus pneumoniae (ATCC 6301)” value [3] of the same molecule?
Its value is 1 µg/mL (≈ 0.638 µM).

What about the “MIC Streptococcus pneumoniae (GC 1894)” value [3] of the same molecule?
The value was 0.25 µg/mL (≈ 0.159 µM).

What about the “MIC Streptococcus pneumoniae (GC 4565)” value [3] of the same molecule?
Its value is 2 µg/mL (≈ 1.28 µM).

What about the “MIC Streptococcus pyogenes (GC 4563)” value [3] of the same molecule?
Its value is 0.5 µg/mL (≈ 0.319 µM).

And the “MIC Streptococcus pneumoniae (ATCC 6301)” value ([3]; strain ATCC 6301)?
Its value is 1 µg/mL (≈ 0.638 µM).

What about the “MIC Streptococcus pneumoniae (GC 1894)” value ([3]; strain GC 1894) of the same molecule?
The value was 0.25 µg/mL (≈ 0.159 µM).

What about the “MIC Streptococcus pyogenes (GC 4563)” value ([3]; strain GC 4563) of the same molecule?
Its value is 0.5 µg/mL (≈ 0.319 µM).

And the “MIC Streptococcus agalactiae (GC 4564)” value ([3]; strain GC 4564)?
Its value is 1 µg/mL (≈ 0.638 µM).

What about the “MIC Streptococcus pneumoniae (GC 4565)” value ([3]; strain GC 4565) of the same molecule?
Its value is 2 µg/mL (≈ 1.28 µM).

What about the median effective dose (ED50), Staphylococcus aureus-SMITH (GC 4543) [4] of the same molecule?
Its median effective dose (ED50), Staphylococcus aureus-SMITH (GC 4543) is 2 mg/kg.

And the “Anatomical Pathology (Day 10), Heart” value [5]?
Its value is 0.

And the “Anatomical Pathology (Day 10), Kidney” value [5]?
Its value is “++”.

What about the “MIC Escherichia coli (ATCC 25922)” value [6] of the same molecule?
Its value is 128 µg/mL (≈ 81.6 µM).

What about the “MIC Escherichia coli (GC 4559)” value [6] of the same molecule?
The value was 128 µg/mL (≈ 81.6 µM).

What about the “MIC Escherichia coli (GC 4560)” value [6] of the same molecule?
Its value is 4 µg/mL (≈ 2.55 µM).

Source: US6914045B2, “Glycopeptide antibiotics” (Wyeth Holdings Corporation, priority 2001, dated 2005)
